For one compound, IC50 results are on record in BindingDB's records for doi:10.1021/jm0613323 (Burnham Institute For Medical Research, 2007).

The structures appear in SMILES notation.

In the assay the target is Receptor-type tyrosine-protein phosphatase C, CD45/PTPRC (Homo sapiens) (UniProt P08575). Nature of the assay: Inhibition of CD45 PTP by fluorescence spectrometry.
Sequence of Receptor-type tyrosine-protein phosphatase C, CD45/PTPRC (Homo sapiens) (P08575 whole entry, looked up): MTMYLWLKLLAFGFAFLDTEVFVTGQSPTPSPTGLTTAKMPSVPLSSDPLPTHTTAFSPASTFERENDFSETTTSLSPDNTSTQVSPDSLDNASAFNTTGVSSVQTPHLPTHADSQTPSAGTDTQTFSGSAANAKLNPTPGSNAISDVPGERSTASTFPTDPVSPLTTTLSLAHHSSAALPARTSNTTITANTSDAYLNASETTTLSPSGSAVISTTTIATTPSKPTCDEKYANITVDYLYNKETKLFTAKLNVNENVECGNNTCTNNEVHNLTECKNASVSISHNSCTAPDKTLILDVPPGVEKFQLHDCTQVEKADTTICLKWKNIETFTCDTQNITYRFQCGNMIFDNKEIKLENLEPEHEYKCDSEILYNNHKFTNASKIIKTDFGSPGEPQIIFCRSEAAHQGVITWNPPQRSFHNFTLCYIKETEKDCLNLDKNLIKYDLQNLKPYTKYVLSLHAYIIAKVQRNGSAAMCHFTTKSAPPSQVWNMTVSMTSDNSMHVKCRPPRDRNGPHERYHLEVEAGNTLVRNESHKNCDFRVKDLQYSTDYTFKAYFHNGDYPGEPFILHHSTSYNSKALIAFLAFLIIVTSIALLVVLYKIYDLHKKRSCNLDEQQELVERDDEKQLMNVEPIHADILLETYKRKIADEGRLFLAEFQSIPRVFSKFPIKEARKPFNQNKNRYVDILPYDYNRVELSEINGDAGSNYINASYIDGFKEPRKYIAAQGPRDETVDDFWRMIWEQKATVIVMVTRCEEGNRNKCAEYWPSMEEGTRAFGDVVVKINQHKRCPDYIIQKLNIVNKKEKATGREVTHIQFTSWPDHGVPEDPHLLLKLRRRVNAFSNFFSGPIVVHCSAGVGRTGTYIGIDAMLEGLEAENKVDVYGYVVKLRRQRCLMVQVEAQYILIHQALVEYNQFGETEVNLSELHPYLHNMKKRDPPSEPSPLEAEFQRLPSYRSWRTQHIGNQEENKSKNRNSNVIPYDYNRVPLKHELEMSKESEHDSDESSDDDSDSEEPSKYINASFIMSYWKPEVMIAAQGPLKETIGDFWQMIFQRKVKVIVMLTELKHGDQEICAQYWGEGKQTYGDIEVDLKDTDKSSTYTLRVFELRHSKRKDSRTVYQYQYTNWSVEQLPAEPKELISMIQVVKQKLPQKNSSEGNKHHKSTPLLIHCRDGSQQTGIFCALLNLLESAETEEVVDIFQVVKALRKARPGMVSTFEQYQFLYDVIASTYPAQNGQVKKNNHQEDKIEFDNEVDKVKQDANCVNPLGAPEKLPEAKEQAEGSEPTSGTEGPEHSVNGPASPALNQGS

A word on the IC50: it is the concentration that gives 50% inhibition. Higher therefore signals a need for much substance. As for `Oc1ccc(-c2ccc(-c3nnn[nH]3)cc2Cl)cc1C12CC3CC(CC(C3)C1)C2` [5-[3'-(1-adamantyl)-2-chloro-4'-hydroxy-4-biphenyl]-1H-tetrazole], the IC50 turned out to be 1200 nM.
